Experimental data published in patent EP4417607A1, “HETEROCYCLIC COMPOUND AS SOS1 INHIBITOR AND USES THEREOF” (Nanjing Zaiming Pharmaceutical Co., Ltd., priority 2021, dated 2023).

Key:
H358 cells = assay: H358 cell proliferation inhibition (CellTiter-Glo luminescent cell viability assay); type: cell-based; conditions: Homo sapiens, NCI-H358, 168 h, 7 days
Method: The effect of the compounds of the present invention on H358 cell proliferation was assessed by CellTiter-Glo luminescent cell viability assay kit method.
H358 cells (ATCC, CRL-5807) were cultured in RPMI1640 (Hyclone, SH30256.01) complete medium containing 10% FBS (Gibco, 10100147) and 100 U/mL penicillin-streptomycin mixed solution (Gibco, 15140163). When the cells grew to 80-90%, the cells were digested, pipetted, and seeded in a 96-well plate (Corning, 4515) at 3000 cells/well (180 µL RPMI1640 complete medium), and then the 96-well plate was incubated overnight in an incubator at 37 °C with 5% CO2.
After incubation overnight, 20 µL of a diluted test compound was added to each well using a multi-channel pipette, and the 96-well plate was placed in an incubator at 37 °C with 5% CO2 for further culture. After 7 days, 100 µL of the supernatant was pipetted and discarded. 50 µL of CellTiter-Glo® 3D Cell Viability Assay liquid was added to each well. The plate was shaken at room temperature at 450 rpm for 30 min. After the cells were completely lysed, "Luminescence" on the microplate reader was selected for plate reading. In this experiment, the cell-free group (replaced with 1640 medium) was used as the 100% inhibition group, and the compound-free group in which the cell was added was used as the 0% inhibition group.
The inhibition percentage of H358 cell proliferation by the compounds of the present invention could be calculated by the following formula: [formula]
(§1) IC50 values of the compounds were calculated from 8 concentration points using XLfit (ID Business Solutions Ltd., UK) software by the following formula: Y = Bottom + (Top−Bottom)/(1+10^(∧)((logIC50−X)×slopefactor)) [formula]
Y is the inhibition percentage, X is the logarithmic value of the concentration of the test compound, Bottom is the minimum inhibition percentage, Top is the maximum inhibition percentage, and slope factor is the slope coefficient of the curve.

[1] = system: p-ERK pathway in H358 cells; assay: p-ERK pathway inhibition in H358 cells (Advanced phospho-ERK (Thr202/Tyr204) cellular kit, HTRF); type: cell-based; conditions: Homo sapiens, NCI-H358, 1 h compound incubation
Method: The effect of the compounds of the present invention on H358 cell p-ERK pathway was assessed by Advanced phospho-ERK (Thr202/Tyr204) cellular kit method.
The experimental procedures were summarized as follows: H358 cells (ATCC, CRL-5807) were cultured in RPMI1640 (ThermoFisher, A1049101) complete medium containing 10% FBS (Gibco, 10100147) and 100 U/mL penicillin-streptomycin mixed solution (Gibco, 15140163). When the coverage of the cells in the culture vessel reached 80-90%, the cells were pipetted and seeded in a 96-well plate (Corning, 3599) at 50000 cells/well (90 µL RPMI1640 complete medium), and the plate was left to stand for 5 min, cultured in an incubator at 37 °C with 5% CO2 for 6 h, replaced with a serum-free RPMI1640, and starved overnight.
After incubation overnight, 10 µL of a diluted test compound was added to each well using a multi-channel pipette, and the 96-well plate was cultured in an incubator at 37 °C with 5% CO2 for 1 h. The supernatant was poured. The cells were washed once with PBS. 50 µL of a lysis buffer (Advanced phospho-ERK (Thr202/Tyr204) cellular kit, 64AERPEH) was added to each well. The plate was shaken at room temperature at 450 rpm for 1 h. After the cells were completely lysed, 16 µL of the supernatant was added to a 384-well plate (PE, 6007299), mixed energy donor Eu and energy acceptor D2 (D2/Eu = 1:1) were added, and the plate was incubated at room temperature for 4 h. HTRF on the microplate reader was selected for plate reading, Ratio = Signal 665 nm/Signal 620 nm × 10^4. In this experiment, the cell-free group (replaced with 1640 medium) was used as the 100% inhibition group, and the compound-free group in which the cell was added was used as the 0% inhibition group.
The inhibition percentage of H358 cell p-ERK pathway by the compounds of the present invention could be calculated by the following formula: [formula]
as §1
Y is the inhibition percentage, X is the logarithmic value of the concentration of the test compound, Bottom is the minimum inhibition percentage, Top is the maximum inhibition percentage, and slope factor is the slope coefficient of the curve. The default fitted curve was used to fit the slope of the S-shaped curve to determine the IC50 value. Table 2. Results of p-ERK inhibition test by the compounds of the present invention

SMILES	IC50 (H358 cells) [nM]	IC50 [1] [nM]
Cc1nc(N[C@H](C)c2cccc(C(F)(F)C(C)(C)C#N)c2)c2cn(C3(CF)CC3)c(=O)cc2n1 [Example 6, (R)-3,3-difluoro-3-(3-(1-((6-(1-(fluoromethyl)cyclopropyl)-2-methyl-7-oxo-6,7-dihydropyrido[4,3-d]pyrimidin-4-yl)amino)ethyl)phenyl)-2,2-dimethylpropanenitrile]	80	112
COc1c(=O)n(C2(CF)CC2)cc2c(N[C@H](C)c3cccc(C(C)(F)F)c3F)nc(C)nc12 [Example 11, (R)-4-((1-(3-(1,1-difluoroethyl)-2-fluorophenyl)ethyl)amino)-6-(1-(fluoromethyl)cyclopropyl)-8-methoxy-2-methylpyrido[4,3-d]pyrimidine-7(6H)-one]	50.8	88.2
Cc1nc(N[C@H](C)c2cccc([N+](=O)[O-])c2C)c2cn(C3(CF)CC3)c(=O)cc2n1 [Example 13]	54.1	131
COc1c(=O)n(C2(CF)CCN(C(C)=O)C2)cc2c(N[C@H](C)c3cccc([N+](=O)[O-])c3C)nc(C)nc12 (stereo partly drawn) [Example 16, 6-(1-acetyl-3-(fluoromethyl)pyrrolidin-3-yl)-8-methoxy-2-methyl-4-(((R)-1-(2-methyl-3-nitrophenyl)ethyl)amino)pyrido[4,3-d]pyrimidine-7(6H)-one]	187	28
COc1c(=O)n(C2(C)CCN(C(C)=S)C2)cc2c(N[C@H](C)c3cccc(C(F)F)c3F)nc(C)nc12 (stereo partly shown) [Example 19]	69.6	52.5
Cc1nc(N[C@H](C)c2cccc(S(F)(F)(F)(F)F)c2)c2cn(N3CCOCC3)c(=O)c(-c3ccc(C#N)nc3)c2n1 [Example 22, (R)-5-(2-methyl-6-morpholinyl-7-oxo-4-((1-(3-(pentafluoro-λ^6-sulfanyl)phenyl)ethyl)amino)-6,7-dihydropyrido[4,3-d]pyrimidin-8-yl)pyridinecarbonitrile]	129	180
COc1c(=O)n(N2CCOCC2)cc2c(N[C@H](C)c3cccc(S(F)(F)(F)(F)F)c3)nc(C)nc12 [Example 25]	35.7	107
COc1c(=O)n(C2(CF)CC2)cc2c(N[C@H](C)c3cccc([N+](=O)[O-])c3C)nc(C)nc12 [Example 29, (R)-6-(1-(fluoromethyl)cyclopropyl)-8-methoxy-2-methyl-4-((1-(2-methyl-3-nitrophenyl)ethyl)amino)pyrido[4,3-d]pyrimidine-7(6H)-one]	78.7	71
[2H]C([2H])([2H])Oc1c(=O)n(C2(CF)CC2)cc2c(N[C@H](C)c3cccc([N+](=O)[O-])c3C)nc(C)nc12 [Example 30, (R)-6-(1-(fluoromethyl)cyclopropyl)-8-(methoxy-d3)-2-methyl-4-((1-(2-methyl-3-nitrophenyl)ethyl)amino)pyrido[4,3-d]pyrimidine-7(6H)-one]	33.6	29.5
[2H]C([2H])([2H])Oc1c(=O)n(C2(CF)CC2)cc2c(N[C@H](C)c3cccc(S(F)(F)(F)(F)F)c3)nc(C)nc12 [Example 31, (R)-6-(1-(fluoromethyl)cyclopropyl)-8-(methoxy-d3)-2-methyl-4-((1-(3-(pentafluoro-λ^6-sulfanyl)phenyl)ethyl)amino)pyrido[4,3-d]pyrimidine-7(6H)-one]	133	73
COc1c(=O)n(C2(CC#N)CC2)cc2c(N[C@H](C)c3cccc(C(F)F)c3F)nc(C)nc12 [Example 32, (R)-2-(1-(4-((1-(3-(difluoromethyl)-2-fluorophenyl)ethyl)amino)-8-methoxy-2-methyl-7-oxopyrido[4,3-d]pyrimidine-6(7H)-yl)cyclopropyl)acetonitrile]	134	48.9
Cc1nc(N[C@H](C)c2cccc(C(F)F)c2F)c2cn(C3(CF)CC3)c(=O)c(OC(C)C)c2n1 [Example 36, (R)-4-((1-(3-(difluoromethyl)-2-fluorophenyl)ethyl)amino)-6-(1-(fluoromethyl)cyclopropyl)-8-isopropoxy-2-methylpyrido[4,3-d]pyrimidine-7(6H)-one]	64.8	69.1
Cc1nc(N[C@H](C)c2cccc(C(F)F)c2F)c2cn(C3(CF)CC3)c(=O)c(N3CCN(C)CC3)c2n1 [Example 38, (R)-4-((1-(3-(difluoromethyl)-2-fluorophenyl)ethyl)amino)-6-(1-(fluoromethyl)cyclopropyl)-2-methyl-8-(4-methylpiperazin-1-yl)pyrido[4,3-d]pyrimidine-7(6H)-one]	11.7	100
Cc1nc(N[C@H](C)c2cccc(C(F)F)c2F)c2cn(C3(CF)CC3)c(=O)c(N3CCOC[C@H]3C)c2n1 [Example 39, 4-(((R)-1-(3-(difluoromethyl)-2-fluorophenyl)ethyl)amino)-6-(1-(fluoromethyl)cyclopropyl)-2-methyl-8-((R)-3-methylmorpholine)pyrido[4,3-d]pyrimidine-7(6H)-one]	32.7	38.7
Cc1nc(N[C@H](C)c2cccc(C(F)F)c2F)c2cn(C3(CF)CC3)c(=O)c(N3C[C@@H](C)O[C@@H](C)C3)c2n1 [Example 41, 4-(((R)-1-(3-(difluoromethyl)-2-fluorophenyl)ethyl)amino)-8-((2S,6R)-2,6-dimethylmorpholino)-6-(1-(fluoromethyl)cyclopropyl)-2-methylpyrido[4,3-d]pyrimidine-7(6H)-one]	52	117
Cc1nc(N[C@H](C)c2cccc(C(F)F)c2F)c2cn(C3(CF)CC3)c(=O)c(N3CCO[C@H](C)C3)c2n1 [Example 42, 4-(((R)-1-(3-(difluoromethyl)-2-fluorophenyl)ethyl)amino)-6-(1-(fluoromethyl)cyclopropyl)-2-methyl-8-((R)-2-methylmorpholine)pyrido[4,3-d]pyrimidine-7(6H)-one]	50.5	41.8
Cc1nc(N[C@H](C)c2cccc(C(F)F)c2F)c2cn(C3(CF)CC3)c(=O)c(N3CCO[C@@H](C)C3)c2n1 [Example 43, 4-(((R)-1-(3-(difluoromethyl)-2-fluorophenyl)ethyl)amino)-6-(1-(fluoromethyl)cyclopropyl)-2-methyl-8-((S)-2-methylmorpholine)pyrido[4,3-d]pyrimidine-7(6H)-one]	50.8	49.2
Cc1nc(N[C@H](C)c2cccc(C(F)F)c2F)c2cn(C3(CF)CC3)c(=O)c(N3CCC(C)(O)CC3)c2n1 [Example 45, (R)-4-((1-(3-(difluoromethyl)-2-fluorophenyl)ethyl)amino)-6-(1-(fluoromethyl)cyclopropyl)-8-(4-hydroxy-4-methylpiperidin-1-yl)-2-methylpyrido[4,3-d]pyrimidine-7(6H)-one]	31.4	18.9
Cc1nc(N[C@H](C)c2cccc(S(F)(F)(F)(F)F)c2)c2cn(C3(CF)CC3)c(=O)c(N3CCOCC3)c2n1 [Example 46, (R)-6-(1-(fluoromethyl)cyclopropyl)-2-methyl-8-morpholino-4-((1-(3-(pentafluoro-λ^6-sulfanyl)phenyl)ethyl)amino)pyrido[4,3-d]pyrimidine-7(6H)-one]	74.8	112
Cc1nc(N[C@H](C)c2cccc(C#N)c2C)c2cn(C3(CF)CC3)c(=O)c(N3CCOCC3)c2n1 [Example 47]	23.7	37.5
